Assay results published in patent US5399543A, “3-[4-(phenylmethoxy)phenyl]-1-substituted-6-haloalkyl-uracil herbicides” (FMC Corporation, priority 1993, dated 1995).

Tests used:
Soybean [1] = test: Preemergence herbicidal activity, soybean; type: in vivo, Glycine max var. Williams; settings: Glycine max, pre-emergence, 0.3 kg/ha, after 17-21 days, read-out: Preemergence herbicidal activity (% control), Soybean
Protocol: (§1) The 3-[4-(phenylmethoxy)phenyl]-1-substituted-6-haloalkyluracil herbicides of this invention were tested for pre- and postemergence herbicidal activity using a variety of crops and weeds. The test plants included soybean (Glycine max var. Williams), field corn (Zea mays var. Agway 425X), wheat (Triticum aestivum var. Wheaton), morningglory (Ipomea lacunosa or Ipomea hederacea), velvetleaf (Abutilon theophrasti), green foxtail (Setaria viridis), Johnsongrass (Sorghum halepense), blackgrass (Aloepecurus myosuroides), common chickweed (Stellaria media), and common cocklebur (Xanthium pensylvanicum).
(§2) For preemergence testing, two disposable fiber flats (8 cm×15 cm×25 cm) for each rate of application of each candidate herbicide were filled to an approximate depth of 6.5 cm with steam-sterilized sandy loam soil. The soil was leveled and impressed with a template to provide five evenly spaced furrows 13 cm long and 0.5 cm deep in each flat. Seeds of soybean, wheat, corn, green foxtail, and johnsongrass were planted in the furrows of the first flat, and seeds of velvetleaf, morningglory, common chickweed, cocklebur, and blackgrass were planted in the furrows of the second flat. The five-row template was employed to firmly press the seeds into place. A topping soil of equal portions of sand and sandy loam soil was placed uniformly on top of each flat to a depth of approximately 0.5 cm. Flats for postemergence testing were prepared in the same manner except that they were planted 8-12 days prior to the preemergence flats and were placed in a greenhouse and watered, thus allowing the seeds to germinate and the foliage to develop.
(§3) In both pre- and postemergence tests, a stock solution of the candidate herbicide was prepared by dissolving 0.27 g of the compound in 20 mL of water/acetone (50/50) containing 0.5% v/v sorbitan monolaurate. For an application rate of 3000 g/ha of herbicide a 10 mL portion of the stock solution was diluted with water/acetone (50/50) to 45 mL.
(§4) The preemergence flats were initially subjected to a light water spray. The four flats were placed two by two along a conveyor belt (i.e., the two preemergence followed by the two postemergence flats). The conveyor belt fed under a spray nozzle mounted about ten inches above the postemergent foliage. The preemergent flats were elevated on the belt so that the soil surface was at the same level below the spray nozzle as the foliage canopy of the postemergent plants. The spray of herbicidal solution was commenced and once stabilized, the flats were passed under the spray at a speed to receive a coverage equivalent of 1000 L/ha. At this coverage the application rates are those shown in the above table for the individual herbicidal solutions. The preemergence flats were watered immediately thereafter, placed in the greenhouse and watered regularly at the soil surface. The postemergence flats were immediately placed in the greenhouse and not watered until 24 hours after treatment with the test solution. Thereafter they were regularly watered at ground level. After 17-21 days the plants were examined and the phytotoxicity data were recorded.
(§5) Herbicidal activity data at selected application rates are given for various compounds of this invention in Table 2 and Table 3. The test compounds are identified by numbers which correspond to those in Table 1.
(§6) Phytotoxicity data were taken as percent control. Percent control was determined by a method similar to the 0 to 100 rating system disclosed in "Research Methods in Weed Science," 2nd ed., B. Truelove, Ed.; Southern Weed Science Society; Auburn University, Auburn, Ala., 1977.

Wheat [2] = test: Preemergence herbicidal activity, wheat; type: in vivo, Triticum aestivum var. Wheaton; settings: Triticum aestivum, pre-emergence, 0.3 kg/ha, after 17-21 days, read-out: Preemergence herbicidal activity (% control), Wheat
Protocol: as §1, §2, §3, §4, §5, §6

Corn [3] = test: Preemergence herbicidal activity, corn; type: in vivo, Zea mays var. Agway 425X; settings: Zea mays, pre-emergence, 0.3 kg/ha, after 17-21 days, read-out: Preemergence herbicidal activity (% control), Corn
Protocol: as §1, §2, §3, §4, §5, §6

Velvetleaf [4] = test: Preemergence herbicidal activity, velvetleaf; type: in vivo; settings: Abutilon theophrasti, pre-emergence, 0.3 kg/ha, after 17-21 days, read-out: Preemergence herbicidal activity (% control), Velvetleaf
Protocol: as §1, §2, §3, §4, §5, §6

Morningglory [5] = test: Preemergence herbicidal activity, morningglory; type: in vivo, Ipomea lacunosa or Ipomea hederacea; settings: Ipomoea, pre-emergence, 0.3 kg/ha, after 17-21 days, read-out: Preemergence herbicidal activity (% control), Morningglory
Protocol: as §1, §2, §3, §4, §5, §6

Chickweed [6] = test: Preemergence herbicidal activity, chickweed; type: in vivo; settings: Stellaria media, pre-emergence, 0.3 kg/ha, after 17-21 days, read-out: Preemergence herbicidal activity (% control), Chickweed
Protocol: as §1, §2, §3, §4, §5, §6

Cocklebur [7] = test: Preemergence herbicidal activity, cocklebur; type: in vivo, Xanthium pensylvanicum; settings: Xanthium strumarium, pre-emergence, 0.3 kg/ha, after 17-21 days, read-out: Preemergence herbicidal activity (% control), Cocklebur
Protocol: as §1, §2, §3, §4, §5, §6

Blackgrass [8] = test: Preemergence herbicidal activity, blackgrass; type: in vivo, Aloepecurus myosuroides; settings: Alopecurus myosuroides, pre-emergence, 0.3 kg/ha, after 17-21 days, read-out: Preemergence herbicidal activity (% control), Blackgrass
Protocol: as §1, §2, §3, §4, §5, §6

Green foxtail [9] = test: Preemergence herbicidal activity, green foxtail; type: in vivo; settings: Setaria viridis, pre-emergence, 0.3 kg/ha, after 17-21 days, read-out: Preemergence herbicidal activity (% control), Green foxtail
Protocol: as §1, §2, §3, §4, §5, §6

Johnsongrass [10] = test: Preemergence herbicidal activity, johnsongrass; type: in vivo; settings: Sorghum halepense, pre-emergence, 0.3 kg/ha, after 17-21 days, read-out: Preemergence herbicidal activity (% control), Johnsongrass
Protocol: as §1, §2, §3, §4, §5, §6

Soybean [11] = test: Postemergence herbicidal activity, soybean; type: in vivo, Glycine max var. Williams; settings: Glycine max, post-emergence, 0.3 kg/ha, after 17-21 days, read-out: Postemergence herbicidal activity (% control), Soybean
Protocol: as §1, §2, §3, §4, §5, §6

Wheat [12] = test: Postemergence herbicidal activity, wheat; type: in vivo, Triticum aestivum var. Wheaton; settings: Triticum aestivum, post-emergence, 0.3 kg/ha, after 17-21 days, read-out: Postemergence herbicidal activity (% control), Wheat
Protocol: as §1, §2, §3, §4, §5, §6

Corn [13] = test: Postemergence herbicidal activity, corn; type: in vivo, Zea mays var. Agway 425X; settings: Zea mays, post-emergence, 0.3 kg/ha, after 17-21 days, read-out: Postemergence herbicidal activity (% control), Corn
Protocol: as §1, §2, §3, §4, §5, §6

Velvetleaf [14] = test: Postemergence herbicidal activity, velvetleaf; type: in vivo; settings: Abutilon theophrasti, post-emergence, 0.3 kg/ha, after 17-21 days, read-out: Postemergence herbicidal activity (% control), Velvetleaf
Protocol: as §1, §2, §3, §4, §5, §6

Morningglory [15] = test: Postemergence herbicidal activity, morningglory; type: in vivo, Ipomea lacunosa or Ipomea hederacea; settings: Ipomoea, post-emergence, 0.3 kg/ha, after 17-21 days, read-out: Postemergence herbicidal activity (% control), Morningglory
Protocol: as §1, §2, §3, §4, §5, §6

Chickweed [16] = test: Postemergence herbicidal activity, chickweed; type: in vivo; settings: Stellaria media, post-emergence, 0.3 kg/ha, after 17-21 days, read-out: Postemergence herbicidal activity (% control), Chickweed
Protocol: as §1, §2, §3, §4, §5, §6

Cocklebur [17] = test: Postemergence herbicidal activity, cocklebur; type: in vivo, Xanthium pensylvanicum; settings: Xanthium strumarium, post-emergence, 0.3 kg/ha, after 17-21 days, read-out: Postemergence herbicidal activity (% control), Cocklebur
Protocol: as §1, §2, §3, §4, §5, §6

Blackgrass [18] = test: Postemergence herbicidal activity, blackgrass; type: in vivo, Aloepecurus myosuroides; settings: Alopecurus myosuroides, post-emergence, 0.3 kg/ha, after 17-21 days, read-out: Postemergence herbicidal activity (% control), Blackgrass
Protocol: as §1, §2, §3, §4, §5, §6

Green foxtail [19] = test: Postemergence herbicidal activity, green foxtail; type: in vivo; settings: Setaria viridis, post-emergence, 0.3 kg/ha, after 17-21 days, read-out: Postemergence herbicidal activity (% control), Green foxtail
Protocol: as §1, §2, §3, §4, §5, §6

Johnsongrass [20] = test: Postemergence herbicidal activity, johnsongrass; type: in vivo; settings: Sorghum halepense, post-emergence, 0.3 kg/ha, after 17-21 days, read-out: Postemergence herbicidal activity (% control), Johnsongrass
Protocol: as §1, §2, §3, §4, §5, §6

Compound | activity at 300 g/ha (Soybean [1]) [%] | activity at 300 g/ha (Wheat [2]) [%] | activity at 300 g/ha (Corn [3]) [%] | activity at 300 g/ha (Velvetleaf [4]) [%] | activity at 300 g/ha (Morningglory [5]) [%] | activity at 300 g/ha (Chickweed [6]) [%] | activity at 300 g/ha (Cocklebur [7]) [%] | activity at 300 g/ha (Blackgrass [8]) [%] | activity at 300 g/ha (Green foxtail [9]) [%] | activity at 300 g/ha (Johnsongrass [10]) [%] | activity at 300 g/ha (Soybean [11]) [%] | activity at 300 g/ha (Wheat [12]) [%] | activity at 300 g/ha (Corn [13]) [%] | activity at 300 g/ha (Velvetleaf [14]) [%] | activity at 300 g/ha (Morningglory [15]) [%] | activity at 300 g/ha (Chickweed [16]) [%] | activity at 300 g/ha (Cocklebur [17]) [%] | activity at 300 g/ha (Blackgrass [18]) [%] | activity at 300 g/ha (Green foxtail [19]) [%] | activity at 300 g/ha (Johnsongrass [20]) [%]
Cn1c(C(F)(F)F)cc(=O)n(-c2ccc(OCc3c(Cl)cccc3Cl)cc2)c1=O [Compound 7] | 0 | 0 | 0 | 0 | 0 | 0 | 0 | 0 | 0 | 0 | 0 | 0 | 0 | 0 | 10 | 0 | 0 | 0 | 90 | 0
Cc1cc(OCc2ccccc2)ccc1-n1c(=O)cc(C(F)(F)F)n(C)c1=O [Compound 12] | 10 | 0 | 40 | 60 | 10 | 0 | 0 | 0 | 80 | 60 | 20 | 0 | 0 | 30 | 20 | 0 | 0 | 0 | 50 | 0
Cn1c(C(F)(F)F)cc(=O)n(-c2ccc(OCc3ccc(C(F)(F)F)cc3)cc2)c1=O [Compound 22] | 90 | 0 | 30 | 100 | 90 | 100 | 50 | 15 | 100 | 70 | 50 | 20 | 20 | 40 | 95 | 15 | 40 | 30 | 90 | 80
Cn1c(C(F)(F)F)cc(=O)n(-c2ccc(OCc3ccccc3)cc2)c1=O [Compound 1] | 75 | 10 | 60 | 100 | 100 | 90 | 75 | 10 | 100 | 75 | 80 | 0 | 30 | 100 | 95 | 95 | 80 | 10 | 90 | 60
Cn1c(C(F)(F)F)cc(=O)n(-c2ccc(OCc3ccc(Cl)cc3)cc2)c1=O [Compound 4, 3-[4-(4-Chlorophenylmethoxy)phenyl]-1-methyl-6-trifluoromethyluracil] | 60 | 10 | 30 | 100 | 90 | 100 | 30 | 50 | 100 | 95 | 95 | 0 | 50 | 95 | 100 | 100 | 100 | 0 | 80 | 0
Cn1c(C(F)(F)F)cc(=O)n(-c2ccc(OCc3ccc(F)cc3)cc2F)c1=O [Compound 11] | 85 | 20 | 85 | 100 | 100 | 100 | 90 | 20 | 100 | 95 | 80 | 20 | 70 | 100 | 100 | 80 | 100 | 0 | 100 | 100
Cn1c(C(F)(F)F)cc(=O)n(-c2ccc(OCc3ccccc3)cc2F)c1=O [Compound 9] | 85 | 40 | 80 | 100 | 100 | 90 | 50 | 30 | 100 | 100 | 70 | 20 | 70 | 100 | 100 | 80 | 100 | 0 | 100 | 95
